Where only a bound is given, the exact number is not on record here.

The test system of experiment [1] is T1, HpeHI.
T1 construct: gene hpeH; two components made separately in E. coli, N-terminal His tags cut with TEV; phenolic site in HpeH
Kind of experiment: continuous spectrophotometric assay. Type of experiment: biochemical, Rhodococcus rhodochrous. The conditions noted are these: apparent; 500 μM ATP, 2.0 mM MgCl2, 25 μM MnCl2, HEPES pH 7.5, I = 20 mM, 30 °C; 0.05 μM HpeH, 0.10 μM HpeI. An excerpt:
continuous spectrophotometric assay on HpeHI

Experiment [2] deals with T1, HpeHI. The experiment can be described thus: continuous spectrophotometric assay, low-concentration rates verified by LC-MS. Type of experiment: biochemical, Rhodococcus rhodochrous. The conditions noted are these: apparent; 500 μM ATP, 2.0 mM MgCl2, 25 μM MnCl2, HEPES pH 7.5, I = 20 mM, 30 °C; 0.05 μM HpeH, 0.10 μM HpeI; upper bound. An excerpt: continuous spectrophotometric assay, low-concentration rates verified by LC-MS on HpeHI

The target in experiment [3] is HpeH (Rhodococcus rhodochrous GD02). Kind of experiment: mass photometry; Refeyn TwoMP; samples at 20 nM in the standard assay buffer (low ionic strength); acquisition 60 s.
Experiment [4] has the same target. Kind of experiment: SEC-MALS; Superdex 200; 50 µl of HpeH (12.5 µM), HpeI (25 µM) or both, incubated at room temperature for at least 20 min; 10 mM Hepes pH 7.5, 0.50 mM TCEP, 2.0 mM MgCl2, 0.25 mM MnCl2, with 20 mM or 200 mM NaCl; also with AMP-PNP.

For orientation: Km means the concentration of substrate that gives half-maximal velocity. Consider `O=Cc1ccc(O)cc1` [4-hydroxybenzaldehyde], for which the Km with HpeHI [1] is 9.6 µM.
In the case of `COc1cc(C(C)=O)ccc1O` [acetovanillone], in the experiment on HpeHI [2], the Michaelis-Menten constant (Km) is less than 0.3 µM.
In the case of `CC(=O)c1ccc(O)cc1` [4-hydroxyacetophenone], the Km with HpeHI [2] was less than 0.3 µM.
`COc1cc(C=O)ccc1O` [vanillin]: the Km with HpeHI [1] was 10.3 µM.
A word on the stoichiometry N: it is the number of molecules, sites or subunits per partner or assembly. On to HpeH (enzyme), for which the stoichiometry N in experiment [3] and in experiment [4] was 2 in each case.

These data come from PMC12167813, “Characterization of a two-component kinase that initiates the bacterial catabolism of hydroxyphenylethanones” (The Journal of Biological Chemistry, 2025).
